Our source for the EC50 values is US10392366B2, “Azetidine compounds as GPR119 modulators for the treatment of diabetes, obesity, dyslipidemia and related disorders” (SANOFI, priority 2017, dated 2019).

In this experiment the target is T1, human GPR119 (Homo sapiens, UniProt Q8TDV5).
T1 construct: expressed in transfected cells
T1 sequence (Q8TDV5 1-335): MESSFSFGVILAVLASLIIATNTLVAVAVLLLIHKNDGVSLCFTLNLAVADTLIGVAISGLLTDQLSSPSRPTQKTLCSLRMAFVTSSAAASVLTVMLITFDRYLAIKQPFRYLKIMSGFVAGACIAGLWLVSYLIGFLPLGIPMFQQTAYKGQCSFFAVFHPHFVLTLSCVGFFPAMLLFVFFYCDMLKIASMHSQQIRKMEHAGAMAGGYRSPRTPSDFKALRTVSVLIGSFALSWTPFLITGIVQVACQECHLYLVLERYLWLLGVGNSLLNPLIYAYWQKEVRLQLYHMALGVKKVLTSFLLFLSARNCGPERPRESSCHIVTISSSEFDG
Description: Functional cellular assay measuring GPR119-mediated cAMP release (HTRF) in HEK-293 cells stably expressing recombinant GPR119. To be noted: cell line expressing human GPR119, 30 minutes at room temperature. In kind it is cell-based. On the procedure: Functional Cellular Assays Measuring GPR119-mediated cAMP Release
Compounds of the present disclosure, which are agonists of GPR119, were characterized by functional assays measuring the cAMP response of HEK-293 cell lines stably expressing recombinant GPR119 from man, mouse or rat, or by using the hamster cell line HIT-T15 expressing GPR119 endogenously. The cAMP content was determined using a kit based on homogenous time-resolved fluorescence (HTRF) from Cisbio Corp. (cat. no. 62AM4PEC). For preparation, cells were split into T175 culture flasks and grown to near confluency in medium (DMEM/10% FCS for HEK-293 cells, and F-12K medium/10% horse serum/2.5% FCS for HIT-T15 cells, respectively). Medium was then removed and cells washed with PBS lacking calcium and magnesium ions, followed by proteinase treatment with accutase (Sigma-Aldrich, cat. no. A6964). Detached cells were washed and resuspended in assay buffer (1×HBSS; 20 mM HEPES, 0.1% BSA, 2 mM IBMX) and cellular density determined. They were then diluted to 400000 cells/mL and 25 μL-aliquots dispensed to the wells of 96-well plates. For measurement, 25 μL of test compound in assay buffer was added and incubated for 30 minutes at room temperature. After addition of HTRF reagents diluted in lysis buffer, the plates were incubated for 1 hour, followed by measuring the fluorescence ratio at 665 vs. 620 nm. Potency of the agonists was quantified by determining the concentrations that caused 50% of the maximal response/activation (EC50). See Table 6 for exemplary data obtained using the cell line expressing human GPR119.
For orientation: EC50 means the concentration needed to bring the measured effect to its halfway point. As to `C[S+]([O-])C1CN(c2ncc(N3CC[C@@H](Oc4ccc(Oc5ccc(F)cc5)nc4)C3=O)cn2)C1` (stereo partly drawn) [Compound 1-14], the EC50 was found to be 2070 nM. Consider `O=C(NC1CC1)C1CN(c2ncc(N3CC[C@@H](Oc4ccc(Oc5ccc(F)cc5)nc4)C3=O)cn2)C1` [Compound 4-09], for which the EC50 was determined as 1520 nM.

As for `O=C1[C@H](Oc2ccc(OCC(F)(F)F)nc2)CCN1c1cnc(N2CC3(CCNC3=O)C2)nc1` [Compound 1-26], the EC50 is 448 nM. With `CN(CC(N)=O)C(=O)C1CN(c2ncc(N3CC[C@@H](Oc4ccc(OCC(F)(F)F)nc4)C3=O)cn2)C1` [Compound 4-18], the half-maximal effective concentration (EC50) was 398 nM. The same measure for `CCNC(=O)C1CN(c2ncc(N3CC[C@@H](Oc4ccc(OCC(F)(F)F)nc4)C3=O)cn2)C1` [Compound 4-13]: 244 nM. For the compound `NC(=O)C1CN(c2ncc(N3CC[C@@H](Oc4ccc(Oc5ccc(F)cc5)nc4)C3=O)cn2)C1` [Compound 4-04], the EC50 was 5880 nM.

In the case of `CN(C)C(=O)C1CN(c2ccc(N3CC[C@@H](Oc4ccc(OCC(F)(F)F)nc4)C3=O)cn2)C1` [Compound 1-10], the EC50 turned out to be 44 nM. As to `CNC(=O)C1CN(c2ccc(N3CC[C@@H](Oc4ccc(OCC(F)(F)F)nc4)C3=O)cn2)C1` [Compound 4-25], the EC50 amounted to 88 nM.

For the compound `CN(C)C(=O)C1CN(c2ncc(N3CCC(Cc4ccc(OCC(F)(F)F)nc4)C3=O)cn2)C1` (single isomer, unassigned) [Compound 1-45], the EC50 amounted to 203 nM. As to `O=C(C1CN(c2ncc(N3CC[C@@H](Oc4ccc(OCC(F)(F)F)nc4)C3=O)cn2)C1)N1CCC1` [Compound 4-22], the EC50 worked out at 116 nM. Turning to `CS(=O)(=O)C1CN(c2ncc(N3CC[C@@H](Oc4ccc(Oc5ccc(F)cc5)nc4)C3=O)cn2)C1` [Compound 1-18], the EC50 turned out to be 343 nM. Consider `CS(=O)(=O)C1CN(c2ncc(N3CCC(Cc4ccc(OCC(F)(F)F)nc4)C3=O)cn2)C1` (single isomer, unassigned) [Compound 1-43], for which the EC50 turned out to be 116 nM.

As to `CNCCOC(=O)C1CN(c2ncc(N3CC[C@@H](Oc4ccc(OCC(F)(F)F)nc4)C3=O)cn2)C1` [Compound 4-16], the EC50 stood at 213 nM. On to `CC(C)[S+]([O-])C1CN(c2ncc(N3CC[C@@H](Oc4ccc(OCC(F)(F)F)nc4)C3=O)cn2)C1` (stereo partly drawn) [Compound 1-51], for which the EC50 turned out to be 93 nM. For `CC(C)NC(=O)C1CN(c2ncc(N3CC[C@@H](Oc4ccc(Oc5ccc(F)cc5)nc4)C3=O)cn2)C1` [Compound 4-05], the EC50 worked out at 1680 nM.

Turning to `CCNC(=O)C1CN(c2ncc(N3CC[C@@H](Oc4ccc(Oc5ccc(F)cc5)nc4)C3=O)cn2)C1` [Compound 4-03], the EC50 came out at 4040 nM. Turning to `CC(C)[S+]([O-])C1CN(c2ncc(N3CC[C@@H](Oc4ccc(C(=O)C5CC5)c(F)c4)C3=O)cn2)C1` (stereo partly drawn) [Compound 1-41], the EC50 came to 221 nM.

With `CN(C)C(=O)C1CN(c2ncc(N3CC[C@H](Oc4ccc(OCC(F)(F)F)nc4)C3=O)cn2)C1` [Compound 1-13], the EC50 is 257 nM. As for `CC(C)[S+]([O-])C1CN(c2ncc(N3CC[C@@H](Oc4ccc(OCC(F)(F)F)nc4)C3=O)cn2)C1` (single isomer, unassigned) [Compound 1-36], the EC50 is 158 nM. As for `CN(C)C(=O)C1CN(c2ncc(N3CC[C@@H](Oc4ccc(C(=O)c5ccc(F)cc5)nc4)C3=O)cn2)C1` [Compound 2-06], the EC50 worked out at 145 nM. As for `COC(=O)C1CN(c2ccc(N3CC[C@@H](Oc4ccc(OCC(F)(F)F)nc4)C3=O)cn2)C1` [Compound 1-52], the EC50 was 12 nM. For `CS(=O)(=O)C1CN(c2ncc(N3CC[C@@H](Oc4ccc(C(=O)C5CC5)cc4)C3=O)cn2)C1` [Compound 1-17], the EC50 was determined as 122 nM. For `CC(=O)NC1CN(c2ncc(N3CC[C@@H](Oc4ccc(OCC(F)(F)F)nc4)C3=O)cn2)C1` [Compound 4-24], the EC50 was 1350 nM. With `CS(=O)(=O)C1CN(c2ncc(N3CC[C@@H](Oc4ccc(C(=O)C5CC5)nc4)C3=O)cn2)C1` [Compound 1-33], the EC50 was 664 nM.
